# Where no end group is shown, it is not given here. The star is where a group is joined. For = O=C*
# Test system: type II collagen arthritis
# Experiment: Induced type II collagen arthritis mouse model
# Assay type: in vivo, mouse (DBA/1 male)
# Settings: HK-X TC or footpad, 0.4 or 4 mg/kg for 20 days; x-ray and histology
# Excerpt: A mouse model is used to evaluate the effect of the compounds of the present invention on the histological, radiographic and clinical appearance of induced type II collagen arthritis. Mice: DBA/1(2) male mice weighing 25 gms (Jackson Laboratories, Bar Harbor, Me. or B&K Universal, Kent Wash.) are used for this work. This strain of mouse is susceptible to CIA by the injection of heterologous type II collagen. Bovine Collagen (BC), Complete Freund's Adjuvant (CFA) and Incomplete Freund's Adjuvant (ICFA) can be obtained from Sigma Chemical. Antigen for immunization is processed in 0.1 M acetic acid and formulated with CFA or ICFA. […] The degree of cellularity and areas of inflammation are quantified by using digitization of histological photomicrographs and applying standard area and point counting techniques as described above. […] The average area of soft tissue (pannus) of the joint is determined by analysis of computer digitized radiographs, along with changes in density of the adjacent hard tissues by comparison with internal standards included with each radiograph. […] The significance of the differences in density and area for control and experimental mice is assessed using paired T-tests at each time point. […] Swelling of hind paws is also quantitated by measuring the thickness of the ankle from the medial to the lateral malledus with a constant tension caliper. […]
substance,measurement,value
f-Met-Leu-Phe-Phe (For-MLFF) [Example 9],Degree of arthritis,reduce the degree of arthritis

# Reference: patent publication US20030130200A1, “Small peptides and methods for treatment of asthma and inflammation” (Hisatek, LLC, priority 1997, published 2003)
